According to US12084451B2, “Compositions and methods for reducing tactile dysfunction, anxiety, and social impairment” (President and Fellows of Harvard College, priority 2018, dated 2024):
Several values for one entry are separate records, joined by “and”; a condition that tells them apart may be missing. Equal values may be shown once.

Experiments:
[1] = system: rodent models of neuropathic pain; assay: rodent models of neuropathic pain; type: in vivo
Excerpt: The utility of peripherally-restricted GABAA receptor PAMs, agonists are not limited to treatment of the above indications; the compounds disclosed herein are also useful for treating touch over-reactivity and pain associated with other disease states, including Sensory Processing Disorder (SPD) and fibromyalgia, as well as mechanical allodynia associated with nerve injury, shingles, diabetic neuropathy, chemotherapy-induced neuropathy and other neuropathic pain states.

hGABAA α1β3γ2 [2] = target: T1, hGABAA α1β3γ2 (Homo sapiens, UniProt P14867+P18507+P28472); assay: hGABAA α1β3γ2 IonFlux HT Agonist Assay; type: cell-based; settings: for Normalized Percentage Activation Mean: normalized to EC100 GABA (30 μM)
T1 sequence (P14867 28-456): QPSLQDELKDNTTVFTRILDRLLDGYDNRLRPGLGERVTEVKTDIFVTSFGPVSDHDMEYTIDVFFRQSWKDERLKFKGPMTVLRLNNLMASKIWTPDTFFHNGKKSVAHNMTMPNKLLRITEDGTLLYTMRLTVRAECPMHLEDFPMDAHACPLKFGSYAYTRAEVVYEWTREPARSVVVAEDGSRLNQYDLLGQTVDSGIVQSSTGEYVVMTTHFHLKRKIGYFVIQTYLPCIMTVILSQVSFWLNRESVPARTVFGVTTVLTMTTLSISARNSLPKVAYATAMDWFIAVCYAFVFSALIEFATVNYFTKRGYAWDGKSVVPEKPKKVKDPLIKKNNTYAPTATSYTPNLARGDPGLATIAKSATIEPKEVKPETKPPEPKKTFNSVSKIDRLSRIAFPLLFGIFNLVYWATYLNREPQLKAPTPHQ
T1 sequence (P28472 26-473): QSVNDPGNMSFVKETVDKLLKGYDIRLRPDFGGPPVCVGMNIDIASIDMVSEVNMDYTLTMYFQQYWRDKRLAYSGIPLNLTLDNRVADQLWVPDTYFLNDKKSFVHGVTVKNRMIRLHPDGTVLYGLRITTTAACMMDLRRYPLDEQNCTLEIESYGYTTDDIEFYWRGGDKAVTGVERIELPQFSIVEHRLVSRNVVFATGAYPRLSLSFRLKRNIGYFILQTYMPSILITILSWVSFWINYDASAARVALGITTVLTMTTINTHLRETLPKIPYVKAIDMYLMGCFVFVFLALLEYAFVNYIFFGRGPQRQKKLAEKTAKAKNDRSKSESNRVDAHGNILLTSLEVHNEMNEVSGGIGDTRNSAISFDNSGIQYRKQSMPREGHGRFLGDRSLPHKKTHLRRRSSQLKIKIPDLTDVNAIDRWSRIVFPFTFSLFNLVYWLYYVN
T1 sequence (P18507 40-475): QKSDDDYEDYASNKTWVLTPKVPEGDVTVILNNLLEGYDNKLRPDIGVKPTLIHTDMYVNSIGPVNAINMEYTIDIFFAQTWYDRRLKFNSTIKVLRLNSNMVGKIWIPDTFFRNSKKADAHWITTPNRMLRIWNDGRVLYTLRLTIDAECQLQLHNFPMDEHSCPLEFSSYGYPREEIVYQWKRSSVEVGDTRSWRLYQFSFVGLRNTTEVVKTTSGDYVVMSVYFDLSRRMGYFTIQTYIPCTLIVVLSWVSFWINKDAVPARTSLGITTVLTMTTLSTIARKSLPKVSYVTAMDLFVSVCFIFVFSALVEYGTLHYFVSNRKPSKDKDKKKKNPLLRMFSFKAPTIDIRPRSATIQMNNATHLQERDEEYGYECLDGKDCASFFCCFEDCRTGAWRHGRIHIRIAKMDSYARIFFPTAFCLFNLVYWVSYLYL
Experimental: Ligand-gated ion channel targets were hGABAA α2β3γ2 and hGABAA α1β3γ2. Electrophysiological assays conducted to profile two compounds for agonist activities on hGABAA α2β3γ2 and seven compounds for agonist activities on hGABAA α1β3γ2 using the IonFlux HT electrophysiological platform.
The parameters measured are described in the Data Analysis section. […] Note: The test compounds was applied over two (2) ‘experimental patterns’ in increasing concentrations.
The supplied compound was prepared in DMSO to concentrations that were 300× the final assay concentrations. Aliquots were taken out and diluted 300× into external buffer to give the final assay concentration. At wells included a final DMSO concentration of 0.33% including all control wets.
All recordings were obtained from a holding potential of −60 mV. The compound addition sequence that was used for all additions was the same for all assays. […] Each test concentration of compound was applied for 2 seconds followed by 60 seconds wash. The process was repeated with the next ascending concentration of test compound. The test compounds were applied over two (2) ‘experimental patterns’ in increasing concentrations (FIG. 11).
AM data were first exported to an Excel compatible data file and then analyzed using Graph Pad Prism software.

SNL rats = assay: Rat spinal nerve ligation (SNL) model of neuropathic pain, Von frey test; type: in vivo, SD Rat; settings: 5 mpk IP; for Von frey test 50% g Threshold, group mean: N 8
Experimental: Chung surgery were conducted on anesthetized rats. Rats were habituated in the testing environment for 15 minutes before allodynia measurement (2-3 times). Pre-dose baseline were taken on day 9 post surgery. Rats that don't show allodynic response at this point were excluded. SNL rats with a paw withdrawal threshold >4 g. The animals were grouped according to 50% paw withdrawal threshold (g) and weight. The animals were dosed test articles and vehicle according to the dose protocol. On the testing day (Day 9), rats were dosed with testing articles with 16 min interval between groups. Rats were measured for allodynic response at 0.75, 1.5, 3 h time point post dosing. All values will be expressed as mean±S.E.M. The significance of the differences among groups will be evaluated by two-way ANOVA followed by Dunnett's test using graphpad Prism 6 software. A p value of less than 0.05 is considered statistically significant.

[3] = system: Mecp2, Shank3, and Fmr1 mutant mice; assay: animal models of ASD; type: in vivo; settings: three animal models of ASD (Mecp2, Shank3, and Fmr1 mutant mice)
Excerpt: These findings raise the exciting possibility that GABAA receptor agonists, which attenuate the activity of peripheral mechanosensory neurons, may be useful for treating tactile hypersensitivity and thus anxiety and social impairments in ASD patients. Treating young children with GABAA receptor agonists has traditionally been avoided because of undesirable side effects of these drugs in children. Indeed, there is great reluctance on the part of physicians to use FDA-approved GABAA receptor agonists and positive allosteric modulators because of undesirable side effects, including sedation, and serious complications associated with interference with brain development. […] Importantly, peripherally-restricted GABAA receptor agonists should not promote undesirable side effects observed with all currently used, FDA-approved GABAA receptor agonists that act in the brain.

hGABAA α1β3γ2 [4] = target: T1, hGABAA α1β3γ2; assay: hGABAA IonFlux HT PAM Assay, α1β3γ2; type: cell-based
Excerpt: (§1) Ligand-gated ion channels targeted were hGABAA α1β3γ2 and hGABAA α2β3γ2.
(§2) Electrophysiological assays conducted to profile nine (9) compounds for activities on the on channel targets listed above for Positive Allosteric Modulator (PAM) activities using the IonFlux HT electrophysiological platform.
The parameters measured are described in the Data Analysis section.
(§3) All wells included a final DMSO concentration of 0.33% including all control wells.
(§4) All recordings were obtained from a holding potential of −60 mV. The compound addition sequence that was used for all additions was the same for all assays. […] The process was repeated with the next ascending concentration of test compound (FIG. 1).
(§5) All data were first exported to an Excel compatible data file and then analyzed using Graph Pad Prism software.

hGABAA α2β3γ2 = hGABAA α2β3γ2 (Homo sapiens, UniProt P18507+P28472+P47869); assay: hGABAA IonFlux HT PAM Assay, α2β3γ2; type: cell-based
Sequence of hGABAA α2β3γ2 (P47869 29-451): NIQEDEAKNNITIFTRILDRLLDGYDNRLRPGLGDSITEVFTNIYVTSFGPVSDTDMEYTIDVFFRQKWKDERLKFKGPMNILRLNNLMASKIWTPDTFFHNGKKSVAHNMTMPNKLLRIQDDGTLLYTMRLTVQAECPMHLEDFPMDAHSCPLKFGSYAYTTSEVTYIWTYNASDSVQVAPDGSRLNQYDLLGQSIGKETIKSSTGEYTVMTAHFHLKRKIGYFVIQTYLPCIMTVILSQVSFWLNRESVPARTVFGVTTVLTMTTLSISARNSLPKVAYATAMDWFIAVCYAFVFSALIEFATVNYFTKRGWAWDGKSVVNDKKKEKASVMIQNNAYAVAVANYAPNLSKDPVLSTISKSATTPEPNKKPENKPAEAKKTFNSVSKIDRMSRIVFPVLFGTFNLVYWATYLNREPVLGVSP
Sequence of hGABAA α2β3γ2 (P28472 26-473): as the sequence (P28472 26-473) above
Sequence of hGABAA α2β3γ2 (P18507 40-475): as the sequence (P18507 40-475) above
Excerpt: as §1, §2
The parameters measured are described in the Data Analysis section. […] Open circles represent data that has been excluded from the curve fitting. Where no curve fit was possible, n/c (not calculable) is listed.
as §3, §4, §5

[5] = positive modulation of EC20 GABA current

O=C(O)C1=CCNCC1 [Isoguvacine]
effect on tactile over-reactivity (mechanical allodynia) [1]: reduces tactile over-reactivity (mechanical allodynia) | Normalized Percentage Activation Mean (hGABAA α1β3γ2 [2]; 0.3 μM): 1.61% | Normalized Percentage Activation Mean (hGABAA α1β3γ2 [2]; 1 μM): 2.18% | Normalized Percentage Activation Mean (hGABAA α1β3γ2 [2]; 3 μM): 6.83% | Normalized Percentage Activation Mean (hGABAA α1β3γ2 [2]; 10 μM): 30.46% | Normalized Percentage Activation Mean (hGABAA α1β3γ2 [2]; 30 μM): 65.63% | Normalized Percentage Activation Mean (hGABAA α1β3γ2 [2]; 100 μM): 84.77% | Normalized Percentage Activation Mean (hGABAA α1β3γ2 [2]; 300 μM): 92.72% | Normalized Percentage Activation Mean (hGABAA α1β3γ2 [2]; 10000 μM): 93.46% | EC50 (hGABAA α1β3γ2 [2]; agonist activation of channel currents, read-out: Estimated EC50): 19.7 µM | Von frey test 50% g Threshold, group mean (SNL rats; 0 Hour (pre-dose baseline), 5 mg/kg): 2.32 g and 2.3 ± 0.33 g | 50% g Threshold, individual animal (SNL rats; 0 Hour (pre-dose baseline, day 9 post surgery), 5 mg/kg): 0.99 g and 1.10 g and 1.85 g and 2.23 g and 2.81 g and 3.00 g and 3.31 g (2×) | 50% g Threshold, individual animal (SNL rats; 0.75 Hour post dosing, 5 mg/kg): 1.31 g (2×) and 2.37 g (2×) and 2.81 g and 1.56 g (2×) and 0.99 g | Von frey test 50% g Threshold, group mean (SNL rats; 0.75 Hour, 5 mg/kg): 1.78 g and 1.8 ± 0.23 g | 50% g Threshold, individual animal (SNL rats; 1.5 Hour post dosing, 5 mg/kg): 1.85 g (3×) and 2.37 g and 0.82 g and 2.81 g and 1.56 g and 2.64 g | Von frey test 50% g Threshold, group mean (SNL rats; 1.5 Hour, 5 mg/kg): 1.97 g and 2.0 ± 0.23 g | 50% g Threshold, individual animal (SNL rats; 3 Hour post dosing, 5 mg/kg): 2.81 g and 6.74 g and 7.91 g and 3.33 g and 5.15 g and 4.34 g and 5.77 g and 3.31 g | Von frey test 50% g Threshold, group mean (SNL rats; 3 Hour): 4.9 ± 0.64 g | analgesia effect (SNL rats; 3 hour time point): significant analgesia effect | effect on tactile hypersensitivity, anxiety-like behaviors and social impairments [3]: improves tactile hypersensitivity, anxiety-like behaviors and social impairments | (%) Control mean (hGABAA α1β3γ2 [4]; 0.001 μM + EC20 GABA): 103.6 % Control | (%) Control n1 (hGABAA α1β3γ2 [4]; 0.001 μM + EC20 GABA): 99.0 % Control | (%) Control n2 (hGABAA α1β3γ2 [4]; 0.001 μM + EC20 GABA): 108.2 % Control | (%) Control mean (hGABAA α1β3γ2 [4]; 0.01 μM + EC20 GABA): 109.8 % Control | (%) Control n1 (hGABAA α1β3γ2 [4]; 0.01 μM + EC20 GABA): 108.8 % Control | (%) Control n2 (hGABAA α1β3γ2 [4]; 0.01 μM + EC20 GABA): 110.8 % Control | (%) Control mean (hGABAA α1β3γ2 [4]; 0.1 μM + EC20 GABA): 113.7 % Control | (%) Control n1 (hGABAA α1β3γ2 [4]; 0.1 μM + EC20 GABA): 110.0 % Control | (%) Control n2 (hGABAA α1β3γ2 [4]; 0.1 μM + EC20 GABA): 117.4 % Control | (%) Control mean (hGABAA α1β3γ2 [4]; 1 μM + EC20 GABA): 119.8 % Control | (%) Control n1 (hGABAA α1β3γ2 [4]; 1 μM + EC20 GABA): 124.5 % Control | (%) Control n2 (hGABAA α1β3γ2 [4]; 1 μM + EC20 GABA): 115.2 % Control | (%) Control mean (hGABAA α1β3γ2 [4]; 10 μM + EC20 GABA): 73.0 % Control | (%) Control n1 (hGABAA α1β3γ2 [4]; 10 μM + EC20 GABA): 76.1 % Control | (%) Control n2 (hGABAA α1β3γ2 [4]; 10 μM + EC20 GABA): 69.9 % Control | (%) Control mean (hGABAA α1β3γ2 [4]; 100 μM + EC20 GABA): 8.0 % Control | (%) Control n1 (hGABAA α1β3γ2 [4]; 100 μM + EC20 GABA): 7.6 % Control | (%) Control n2 (hGABAA α1β3γ2 [4]; 100 μM + EC20 GABA): 8.3 % Control | Mean Maximal Effect (% of Control) (hGABAA α1β3γ2 [4]; normalized to baseline peak current induced by EC20 GABA (1 μM) for 2 seconds): 120 % of Control | Estimated EC50 (hGABAA α1β3γ2 [4]; [5]): n/c* | (%) Control mean (hGABAA α2β3γ2; 0.001 μM + EC20 GABA): 95.4 % Control | (%) Control n1 (hGABAA α2β3γ2; 0.001 μM + EC20 GABA): 94.5 % Control | (%) Control n2 (hGABAA α2β3γ2; 0.001 μM + EC20 GABA): 96.3 % Control | (%) Control mean (hGABAA α2β3γ2; 0.01 μM + EC20 GABA): 93.2 % Control | (%) Control n1 (hGABAA α2β3γ2; 0.01 μM + EC20 GABA): 90.4 % Control | (%) Control n2 (hGABAA α2β3γ2; 0.01 μM + EC20 GABA): 96.0 % Control | (%) Control mean (hGABAA α2β3γ2; 0.1 μM + EC20 GABA): 88.9 % Control | (%) Control n1 (hGABAA α2β3γ2; 0.1 μM + EC20 GABA): 85.9 % Control | (%) Control n2 (hGABAA α2β3γ2; 0.1 μM + EC20 GABA): 91.8 % Control | (%) Control mean (hGABAA α2β3γ2; 1 μM + EC20 GABA): 92.3 % Control | (%) Control n1 (hGABAA α2β3γ2; 1 μM + EC20 GABA): 95.4 % Control | (%) Control n2 (hGABAA α2β3γ2; 1 μM + EC20 GABA): 89.3 % Control | (%) Control mean (hGABAA α2β3γ2; 10 μM + EC20 GABA): 45.7 % Control | (%) Control n1 (hGABAA α2β3γ2; 10 μM + EC20 GABA): 55.0 % Control | (%) Control n2 (hGABAA α2β3γ2; 10 μM + EC20 GABA): 36.4 % Control | (%) Control mean (hGABAA α2β3γ2; 100 μM + EC20 GABA): 6.9 % Control | (%) Control n1 (hGABAA α2β3γ2; 100 μM + EC20 GABA): 8.4 % Control | (%) Control n2 (hGABAA α2β3γ2; 100 μM + EC20 GABA): 5.3 % Control | Mean Maximal Effect (% of Control) (hGABAA α2β3γ2; normalized to baseline peak current induced by EC20 GABA (0.8 μM) for 2 seconds): 95 % of Control | Estimated EC50 (hGABAA α2β3γ2; [5]): n/c*
